From ChEMBL document CHEMBL4673397, “Dihydroorotate Dehydrogenase Inhibitors for Treating Acute Myelogenous Leukemia (AML)” (ACS Med Chem Lett, 2021)
pIC50: −log10 of the molar value.

Key:
MOLM-13 = experiment: Antiproliferative activity against human MOLM-13 cells assessed as reduction in cell viability measured after 72 hrs by Celltiter-Glo assay; type: functional, cell-based; settings: MOLM-13, 72 h
[1] = molecular target: Dihydroorotate dehydrogenase (quinone), mitochondrial (Homo sapiens, UniProt Q02127); experiment: Inhibition of human DHODH (30 to 390 residues) expressed in Escherichia coli using dihydroorotate as substrate and CoQ10 as co-substrate by DCIP dye based spectrophotometry analysis
Sequence of Dihydroorotate dehydrogenase (quinone), mitochondrial (Q02127 whole entry, the tested form may be a part): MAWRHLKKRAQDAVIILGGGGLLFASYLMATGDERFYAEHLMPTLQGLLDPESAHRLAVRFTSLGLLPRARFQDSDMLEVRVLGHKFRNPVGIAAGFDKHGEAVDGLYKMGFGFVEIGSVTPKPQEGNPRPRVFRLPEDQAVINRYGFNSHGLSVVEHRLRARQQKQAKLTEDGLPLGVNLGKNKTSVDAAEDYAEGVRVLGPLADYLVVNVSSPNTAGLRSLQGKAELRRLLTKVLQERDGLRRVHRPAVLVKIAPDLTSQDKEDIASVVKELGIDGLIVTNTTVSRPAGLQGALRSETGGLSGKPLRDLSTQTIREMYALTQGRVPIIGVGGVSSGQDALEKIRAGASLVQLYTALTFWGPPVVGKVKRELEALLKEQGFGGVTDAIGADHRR

SMILES	pIC50 (MOLM-13)	pIC50 [1]
C=C(C)c1cn(-c2c(F)ccc(OC)c2Cl)c(=O)c2cc(F)c(-n3nc(CO)n(CC)c3=O)cc12	10.00	–
CCn1c(CO)nn(-c2cc3c(C(C)C)cn(-c4ccccc4C)c(=O)c3cc2F)c1=O	9.70	–
CCn1c(CO)nn(-c2cc3c(C(C)C)cn(-c4c(F)cccc4Cl)c(=O)c3cc2F)c1=O	9.70	–
C=C(C)c1cn(-c2ccccc2F)c(=O)c2cc(F)c(-n3nc(CO)n(CC)c3=O)cc12	9.52	> 9.77
C=C(C)c1cn(-c2c(F)cccc2Cl)c(=O)c2cc(F)c(-n3nc(CO)n(CC)c3=O)cc12	10.00	–
C=C(C)c1cn(-c2cc(F)ccc2C)c(=O)c2cc(F)c(-n3nc(CO)n(CC)c3=O)cc12	10.05	–
